# Legend:
# IL-6 gene expression = IL-6 gene expression in MCAo mice brains; details: 5 mg/kg i.v., 18 hrs following MCAo
# [1] = system: TH-immunoreactive cells at the SNpc (MPTP-induced dopaminergic toxicity); experiment: MPTP short-term model: TH immunoreactive cells at the SNpc; format: in vivo, mice
# Method: The mice (C57/BL male mice, average weight 30 g, Harlan, Israel) were administered i.p. with 4 injections of MPTP (Sigma, USA) (20 mg/kg, 5 ml/kg) in saline (Teva Medical Israel) at 2 hours interval on day 1. The test compounds and vehicle control (cremophor:ethanol diluted in saline) were injected i.p. once just before the first MPTP administration at a volume dose of 5 ml/kg. Dexanabinol was tested at 10, 20, and 30 mg/kg and PRS-211,220 was tested at 0.5, 1, and 5 mg/kg. Each treatment group was composed of at least seven animals. Seven days following the MPTP treatment the animals are euthanized by i.p. administration of 100 mg/kg pentobarbitone sodium (CTS, Israel) and their brains are removed for tyrosine hydroxylase (TH) detection using immunohistochemistry.
# Brains were fixed by immersion in 4% formaldehyde for at least 72 hours. The brains were then washed with PBS and transferred to 30% sucrose in PBS until they sank. […] Quantitative analysis was carried out by counting the number of TH-immunoreactive cells/mm^2 at the widest area of the SNpc.
# Treatment of the animals with the test compounds results in a dose-dependent preservation of the TH-IR cells. Percent preservation is calculated by dividing the number of rescued cells (treatment-MPTP) by the maximal possible number of rescued cells (saline-MPTP). […]
# IL-2 secretion = IL-2 secretion (ELISA) in activated Jurkat T cells; format: cell-based; details: Homo sapiens, supernatant 24 hours after activation, read-out: IC50 for inhibition of IL-2 secretion
# Description: The technique used to quantify the amount of a given protein in a liquid sample, either tissue culture supernatant or body fluid, is based on Enzyme Linked ImmunoSorbent Assay (ELISA) methodology. Either commercially available or established in house, the assay is based on the capture of the protein of interest by specific antibodies bound to the bottom of an ELISA plate well. Unbound material is washed away, the captured protein is then exposed to a secondary antibody generally labeled with horseradish peroxidase (HRP) or alkaline phosphatase (ALP). Again the unbound material is washed away, the samples are then incubated with the appropriate substrate yielding a colorimetric reaction. The reaction is stopped and reading is carried out in a spectrophotometer at the appropriate wavelength. […] Concentration of the protein in the sample is calculated from the standard curve. […]
# In parallel, the supernatant from each well was collected 24 hours after the activation and analyzed for the presence of secreted IL-2 by ELISA. […] The absorbance measured at 450 nm is proportional to the concentration of IL-2 in the sample or standard. A standard curve is obtained by plotting the concentrations of recombinant IL-2 standards versus their absorbances. The IL-2 concentrations in experimental samples are then determined using the standard curve.
# [2] = system: MPTP model of neurodegeneration; experiment: MPTP long-term model: rotarod functional outcome and mortality; format: in vivo, mice
# Method: The mice (C57/BL male mice, average weight 30 g, Harlan, Israel) were administered i.p. with MPTP (Sigma, USA) (40 mg/kg, 5 ml/kg) in saline (Teva Medical, Israel) at 2 weeks interval for four times. The test compounds and controls were injected i.p. once just before the first MPTP administration at a volume dose of 5 ml/kg. Dexanabinol was tested at 20 mg/kg and PRS-211,220 was tested at 5 mg/kg. Each treatment group was composed of at least fourteen animals.
# Seven days following each MPTP injection, the animals were submitted to a functional test using the rotarod apparatus as described by Rozas et al. (Rozas G. et al., J. of Neuroscience Methods 83: 165-75, 1998). The performance of the animals in the rotarod system, which measures overall locomotor ability, reflects their ability to achieve functions generally affected in PD. The animals were trained for 4 days before beginning the experiment. Their task was to stay on the accelerating rod without falling for 12 minutes (3 minutes at each speed). The tested speeds were: 15, 19, 23 and 27 rpm. Animal performance on the rod was scored as follows: each animal could obtain a maximum of 3 points (1 for each minute) for full walking on the rod at each speed. […]
# Another parameter that was measured in this experiment is mortality, which was relatively high in this model.
compound,measurement,setting,value
"CCCCCCC(C)(C)c1cc(O)c2c(c1)OC(C)(C)[C@H]1CC=C(CO)C[C@H]21 [dexanabinol, 1,1-dimethylheptyl-(3S,4S)-7-hydroxy-Δ^6-tetrahydrocannabinol]",Modulation of IL-6 gene expression,IL-6 gene expression,not modulated
same,Preservation of TH-IR cells,"[1]; 20 mg/kg i.p., seven days after MPTP",about 25%
same,Effect of increasing the dose on TH-IR cell preservation,[1]; 30 mg/kg vs 20 mg/kg,no significant effect
same,IC50,IL-2 secretion,8 µM
same,Rotarod functional outcome vs vehicle,"[2]; 20 mg/kg i.p., fourth session",positive trend
same,Mortality,"[2]; 20 mg/kg, MPTP only 69%",11%

# Source: US20050137251A1, “Dexanabinol and dexanabinol analogs regulate inflammation related genes” (priority 2002, published 2005)
